Test system: dP/dt (contractility) in barbiturate-anesthetized dogs
Experiment: Anesthetized dog, inotropic effect (baseline left ventricular dP/dt)
Assay type: in vivo, mongrel dogs
Conditions: with atenolol
Procedure: Inotropic effects were evaluated in barbiturate-anesthetized dogs by differentiating left intraventricular pressure. This procedure was carried out essentially as described by M. K. Grizzel et al in the FASEB Journal, Vol. 3, page 1039, abstract 4728 (1989). […] Cardiac output was determined via thermodilution with a Spectramed computer (Starcom, Oxnard, Calif.) and a 5F Swan Ganz catheter which was inserted into the right jugular vein and positioned in the pulmonary artery. […] A lead II electrocardiogram was measured using subcutaneous electrodes. […] Rectal temperature was monitored and maintained at 37°-38° C. with a heating pad (Baxter Health Care model K20, McGaw Park, Ill.). All variables were recorded using a Gould 3800S physiograph.
Isoproterenol (0.1-0.5 mg/kg) was injected i.v. into the cephalic vein at 10 min intervals except for when the test drug infusion was begun. […] Inhibition of the isoproterenol responses on contractility (dP/dt), heart rate and diastolic blood pressure were determined at each dose of test compound. The inotropic effect of each compound was determined by comparing the level of dP/dt at the end of each 10 min period to that of the level of dP/dt just prior to the infusion of test compound. […]

O=C(COc1ccc(C2=NNC(=O)CC2)cc1Cl)NCCNC[C@H](O)COc1ccccc1 [Example 19, 6-{4-[N-[2-[3-phenoxy-2-hydroxypropylamino]ethyl]carbamoylmethoxy]-3-chlorophenyl}-4,5-dihydro-3(2H)-pyridazinone]
inotropic effects, blockade by atenolol: not blocked by atenolol
